Patent US7915022B2, “Carbonyl reductase, gene thereof and method of using the same” (priority 2004, dated 2011)

What was measured:
[1] = system: polypeptide consisting of the amino acid sequence shown in SEQ ID NO: 3 (carbonyl reductase), cell-free extract of E. coli HB101 (pNTOM3); assay: Substrate specificity of polypeptide produced by transformant E. coli HB101 (pNTOM3); type: biochemical, Ogataea minuta var. minuta NBRC0975; settings: 1 mM substrate, 0.25 mM NADPH, pH 6.5, 30° C., 1 min; relative to activity on CBPB as 100%
Experimental: (§1) In 100 mM phosphate buffer (pH 6.5) containing 0.33% (v/v) dimethyl sulfoxide were dissolved a carbonyl compound to be a substrate to a final concentration of 1 mM, and a coenzyme NADPH to a final concentration of 0.25 mM, respectively. Thereto was added a cell-free extract of E. coli HB101 (pNTOM4) or E. coli HB101 (pNTOM3) prepared in Example 7, and the mixture was reacted at 30° C. for 1 min. The reduction activity on each carbonyl compound was calculated from the rate of decrease in the absorbance of the reaction mixture at a wavelength of 340 nm, and shown in Table 2 as a value relative to the activity on (3S)-1-chloro-3-tert-butoxycarbonylamino-4-phenyl-2-butanone as 100%.

[2] = system: polypeptide consisting of the amino acid sequence shown in SEQ ID NO: 4 (carbonyl reductase), cell-free extract of E. coli HB101 (pNTOM4); assay: Substrate specificity of polypeptide produced by transformant E. coli HB101 (pNTOM4); type: biochemical, Ogataea minuta var. minuta NBRC0975; settings: 1 mM substrate, 0.25 mM NADPH, pH 6.5, 30° C., 1 min; relative to activity on CBPB as 100%
Experimental: as §1

| SMILES | relative activity (%) E. coli HB101 (pNTOM3) [1] [%] | relative activity (%) E. coli HB101 (pNTOM4) [2] [%] |
| --- | --- | --- |
| O=Cc1cccc(Cl)c1 [m-chlorobenzaldehyde] | 344 | 17 |
| O=Cc1cccc([N+](=O)[O-])c1 [m-nitrobenzaldehyde] | 851 | 29 |
| COC(=O)CC(C)=O [methyl acetoacetate] | 8 | 0 |
| COC(=O)C(C)=O [methyl pyruvate] | 674 | 5 |
| CCCC=O [n-butylaldehyde] | 168 | 0 |
| CCCCCC=O [n-hexylaldehyde] | 265 | 3 |
| CCCCCCCCOC(=O)CC(=O)CCl [n-octyl 4-chloroacetoacetate] | 466 | 24 |
| O=Cc1ccccc1Cl [o-chlorobenzaldehyde] | 269 | 17 |
| O=Cc1ccccc1[N+](=O)[O-] [o-nitrobenzaldehyde] | 1621 | 89 |
| O=Cc1ccc(Cl)cc1 [p-chlorobenzaldehyde] | 91 | 12 |
| O=Cc1ccc([N+](=O)[O-])cc1 [p-nitrobenzaldehyde] | 1166 | 21 |
| CCC=O [propionaldehyde] | 99 | 0 |
| CCC(=O)c1ccccc1 [propiophenone] | 183 | 2 |
| O=Cc1ccncc1 [pyridine-4-aldehyde] | 571 | 2 |
| CC(=O)CC(=O)OC(C)(C)C [tert-butyl acetoacetate] | 1330 | 2 |
